Holding throughout (assay): AK assay 384-well format, Prestwick library screening
One assay concerns E. cloacae. The assay is classed as cell-based, Enterobacter cloacae. The conditions noted are these: for fold induction at 50 µM: Enterobacter cloacae, 3 h.
The subject of assay [1] is A. baumannii strain 98-37-09. The assay is classed as cell-based, Acinetobacter baumannii. The conditions noted are these: for fold induction at 50 µM: Acinetobacter baumannii, 983709, 3 h.
The test system of another assay is E. faecium. The assay is classed as cell-based, Enterococcus faecium. The conditions noted are these: for fold induction at 50 µM: Enterococcus faecium, 3 h.
Another assay concerns K. pneumoniae. Format: cell-based, Klebsiella pneumoniae. Conditions: for fold induction at 50 µM: Klebsiella pneumoniae, 3 h.
Another assay relates to P. aeruginosa. Format: cell-based, Pseudomonas aeruginosa. Conditions: for fold induction at 50 µM: Pseudomonas aeruginosa, 3 h.
A further assay has as its system E. coli. The assay is classed as cell-based, Escherichia coli. Conditions: for fold induction at 50 µM: Escherichia coli, 3 h.
The subject of assay [2] is S. aureus strain USA300-0114. Format: cell-based, Staphylococcus aureus. The conditions noted are these: for fold induction at 50 µM: Staphylococcus aureus, USA300, 3 h.
Where [3] appears, read: planktonic E. cloacae, 50 μM final drug concentration, cutoff for positive-scoring molecules 3-fold increase, read-out: AK-based Prestwick Library Screening Results, E. cloacae (increase in extracellular AK activity).
The mark [4] stands for this setting: planktonic A. baumannii, 50 μM final drug concentration, cutoff for positive-scoring molecules 3-fold increase, read-out: AK-based Prestwick Library Screening Results, A. baumannii (increase in extracellular AK activity).
Setting [5] is: planktonic E. faecium, 50 μM final drug concentration, cutoff for positive-scoring molecules 3-fold increase, read-out: AK-based Prestwick Library Screening Results, E. faecium (increase in extracellular AK activity).
Setting [6] is: planktonic K. pneumoniae, 50 μM final drug concentration, cutoff for positive-scoring molecules 3-fold increase, read-out: AK-based Prestwick Library Screening Results, K. pneumoniae (increase in extracellular AK activity).
Setting [7] is: planktonic P. aeruginosa, 50 μM final drug concentration, cutoff for positive-scoring molecules 3-fold increase, read-out: AK-based Prestwick Library Screening Results, P. aeruginosa (increase in extracellular AK activity).
Where [8] appears, read: planktonic E. coli, 50 μM final drug concentration, cutoff for positive-scoring molecules 3-fold increase, read-out: AK-based Prestwick Library Screening Results, E. coli (increase in extracellular AK activity).
[9] abbreviates: planktonic S. aureus, 50 μM final drug concentration, cutoff for positive-scoring molecules 3-fold increase, read-out: AK-based Prestwick Library Screening Results, S. aureus (increase in extracellular AK activity).
Setting [10] is: 50 μM final drug concentration, 384-well format, cutoff for positive-scoring molecules 3-fold increase, read-out: AK-based Prestwick Library Screening Results, E. cloacae (increase in extracellular AK activity).
[11] abbreviates: 50 μM final drug concentration, 384-well format, cutoff for positive-scoring molecules 3-fold increase, read-out: AK-based Prestwick Library Screening Results, A. baumannii (increase in extracellular AK activity).
Where [12] appears, read: 50 μM final drug concentration, 384-well format, cutoff for positive-scoring molecules 3-fold increase, read-out: AK-based Prestwick Library Screening Results, E. faecium (increase in extracellular AK activity).
Setting [13] is: 50 μM final drug concentration, 384-well format, cutoff for positive-scoring molecules 3-fold increase, read-out: AK-based Prestwick Library Screening Results, K. pneumoniae (increase in extracellular AK activity).
[14] abbreviates: 50 μM final drug concentration, 384-well format, cutoff for positive-scoring molecules 3-fold increase, read-out: AK-based Prestwick Library Screening Results, P. aeruginosa (increase in extracellular AK activity).
The mark [15] stands for this setting: 50 μM final drug concentration, 384-well format, cutoff for positive-scoring molecules 3-fold increase, read-out: AK-based Prestwick Library Screening Results, E. coli (increase in extracellular AK activity).
[16] abbreviates: 50 μM final drug concentration, 384-well format, cutoff for positive-scoring molecules 3-fold increase, read-out: AK-based Prestwick Library Screening Results, S. aureus (increase in extracellular AK activity).
[17] abbreviates: 50 μM final drug concentration, planktonic, cutoff for positive 3-fold increase.

Here are results for ten compounds from patent publication US10004701B2, “Methods and compositions for treating infection” (UNIVERSITY OF ROCHESTER, priority 2012, dated 2018).

Where a name gives a salt, the structure may show the parent alone. Read-outs that look alike come from different tables or passages of the source.

In the case of `CC(Cc1cccc(C(F)(F)F)c1)NCCOC(=O)c1ccccc1` (stereo not shown) [Benfluorex hydrochloride], the fold induction at 50 µM in the assay on E. cloacae (setting [3]) was 1.4; in assay [1] (setting [4]), 1; with E. faecium (setting [5]), 0.9; with K. pneumoniae (setting [6]), 1.1; with P. aeruginosa (setting [7]), 1.1; in the assay with E. coli (setting [8]) it was 1.4. Besides, the fold induction at 50 µM in assay [2] (setting [9]) stood at 1.2.

Take `OC(CCCN1CCCCC1)(c1ccccc1)c1ccccc1` [Diphenidol hydrochloride]: the fold induction at 50 µM with E. cloacae (setting [10]) worked out at 0.8; in assay [1] (setting [11]), 0.7; in the assay with E. faecium (setting [12]) it was 1; in the assay with K. pneumoniae (setting [13]) it was 0.7; with P. aeruginosa (setting [14]), 0.8; in the assay with E. coli (setting [15]), 0.8. The fold induction at 50 µM in assay [2] (setting [16]) was 0.7.

Consider `C=CCN1CC[C@]23c4c5ccc(O)c4O[C@H]2C(=O)CC[C@@]3(O)[C@H]1C5` [Naloxone hydrochloride], for which the fold induction at 50 µM in the assay with E. cloacae (read-out: AK-based Prestwick Library Screening Results, E. cloacae (increase in extracellular AK activity)) came out at 1.1; in assay [1] (read-out: AK-based Prestwick Library Screening Results, A. baumannii (increase in extracellular AK activity)), 0.8; in the assay with E. faecium (read-out: AK-based Prestwick Library Screening Results, E. faecium (increase in extracellular AK activity)) it was 0.8; in the assay with K. pneumoniae (read-out: AK-based Prestwick Library Screening Results, K. pneumoniae (increase in extracellular AK activity)) it was 0.6; in the assay with P. aeruginosa (read-out: AK-based Prestwick Library Screening Results, P. aeruginosa (increase in extracellular AK activity)), 0.8; in the assay with E. coli (read-out: AK-based Prestwick Library Screening Results, E. coli (increase in extracellular AK activity)), 0.9. Moreover, the fold induction at 50 µM in assay [2] (read-out: AK-based Prestwick Library Screening Results, S. aureus (increase in extracellular AK activity)) turned out to be 0.7.

For `C#CCN(C)CCCOc1ccc(Cl)cc1Cl` [Clorgyline hydrochloride], the fold induction at 50 µM in the assay on E. cloacae (setting [3]) turned out to be 0.8; in assay [1] (setting [4]), 0.6; with E. faecium (setting [5]), 0.7; with K. pneumoniae (setting [6]), 0.5; with P. aeruginosa (setting [7]) it was 0.7; in the assay with E. coli (setting [8]), 0.7. Moreover, the fold induction at 50 µM in assay [2] (setting [9]) stood at 0.5.

In the case of (S)-(−)-Atenolol, in the assay with E. cloacae (setting [17]), the “AK-based Prestwick Library Screening Results, E. cloacae (fold increase in extracellular AK activity)” value is 1.7. The “AK-based Prestwick Library Screening Results, A. baumannii (fold increase in extracellular AK activity)” value in assay [1] (setting [17]) is reported as 1.1. The “AK-based Prestwick Library Screening Results, E. faecium (fold increase in extracellular AK activity)” value with E. faecium (setting [17]) came to 1.0. Also, in the assay with K. pneumoniae (setting [17]), the “AK-based Prestwick Library Screening Results, K. pneumoniae (fold increase in extracellular AK activity)” value worked out at 0.9. In addition, the “AK-based Prestwick Library Screening Results, P. aeruginosa (fold increase in extracellular AK activity)” value with P. aeruginosa (setting [17]) is on record as 1.1. Besides, in the assay on E. coli (setting [17]), the “AK-based Prestwick Library Screening Results, E. coli (fold increase in extracellular AK activity)” value was determined as 1.2. Further, the “AK-based Prestwick Library Screening Results, S. aureus (fold increase in extracellular AK activity)” value in assay [2] (setting [17]) is recorded as 1.2.

Take `CN(C)CC/C=C1/c2ccccc2Sc2ccc(Cl)cc21` [Chlorprothixene hydrochloride]: the fold induction at 50 µM came to 1 in the assay on E. cloacae (setting [3]); 1.2 in assay [1] (setting [4]); 1 in the assay on E. faecium (setting [5]); 0.8 with K. pneumoniae (setting [6]); 0.9 with P. aeruginosa (setting [7]); 1 in the assay on E. coli (planktonic E. coli, 50 μM final drug concentration, […], read-out: AK-based Prestwick Library Screening Results, E. coli (increase in extracellular AK activity)). Besides, the fold induction at 50 µM in assay [2] (setting [9]) was 0.6.

In the case of `O=C(/C=C/c1ccc(O)c(O)c1)O[C@@H]1C[C@](O)(C(=O)O)C[C@@H](O)[C@H]1O` [Chlorogenic acid], the fold induction at 50 µM in the assay on E. cloacae (setting [3]) was determined as 0.8; in assay [1] (setting [4]), 0.8; with E. faecium (setting [5]), 0.9; in the assay with K. pneumoniae (setting [6]), 0.7; in the assay with P. aeruginosa (setting [7]), 0.7; in the assay with E. coli (setting [8]) it was 0.8. Besides, the fold induction at 50 µM in assay [2] (setting [9]) stood at 0.5.

As to Antimycin A, the “AK-based Prestwick Library Screening Results: E. cloacae (increase in extracellular AK activity)” value in the assay on E. cloacae (planktonic E. cloacae, 50 μM final drug concentration, 384-well, […]) came to 1.3. Further, in assay [1] (planktonic A. baumannii, 50 μM final drug concentration, 384-well, […]), the “AK-based Prestwick Library Screening Results: A. baumannii (increase in extracellular AK activity)” value stood at 1.4. In addition, the “AK-based Prestwick Library Screening Results: E. faecium (increase in extracellular AK activity)” value in the assay on E. faecium (planktonic E. faecium, 50 μM final drug concentration, 384-well, […]) is 1.1. Also, the “AK-based Prestwick Library Screening Results: K. pneumoniae (increase in extracellular AK activity)” value in the assay on K. pneumoniae (planktonic K. pneumoniae, 50 μM final drug concentration, 384-well, […]) worked out at 1.0. Further, in the assay on P. aeruginosa (planktonic P. aeruginosa, 50 μM final drug concentration, 384-well, […]), the “AK-based Prestwick Library Screening Results: P. aeruginosa (increase in extracellular AK activity)” value stood at 1.1. In the assay on E. coli (planktonic E. coli, 50 μM final drug concentration, 384-well, […]), the “AK-based Prestwick Library Screening Results: E. coli (increase in extracellular AK activity)” value is 1.3. Further, the “AK-based Prestwick Library Screening Results: S. aureus (increase in extracellular AK activity)” value in assay [2] (planktonic S. aureus, 50 μM final drug concentration, 384-well, […]) is given as 1.0.

With `CCN(CC)CC(=O)Nc1c(C)cccc1C` [Lidocaine hydrochloride], the fold induction at 50 µM in the assay on E. cloacae (planktonic E. cloacae, 50 μM final drug concentration, 384-well, cutoff for positive-scoring molecules 3-fold increase, read-out: AK-based Prestwick Library Screening Results: E. cloacae (increase in extracellular AK activity)) amounted to 1.3; in assay [1] (planktonic A. baumannii, 50 μM final drug concentration, 384-well, cutoff for positive-scoring molecules 3-fold increase, read-out: AK-based Prestwick Library Screening Results: A. baumannii (increase in extracellular AK activity)), 1.1; with E. faecium (planktonic E. faecium, 50 μM final drug concentration, 384-well, cutoff for positive-scoring molecules 3-fold increase, read-out: AK-based Prestwick Library Screening Results: E. faecium (increase in extracellular AK activity)), 1.2; in the assay with K. pneumoniae (planktonic K. pneumoniae, 50 μM final drug concentration, 384-well, cutoff for positive-scoring molecules 3-fold increase, read-out: AK-based Prestwick Library Screening Results: K. pneumoniae (increase in extracellular AK activity)) it was 1.1; in the assay on P. aeruginosa (planktonic P. aeruginosa, 50 μM final drug concentration, 384-well, cutoff for positive-scoring molecules 3-fold increase, read-out: AK-based Prestwick Library Screening Results: P. aeruginosa (increase in extracellular AK activity)), 1.1; in the assay on E. coli (planktonic E. coli, 50 μM final drug concentration, 384-well, cutoff for positive-scoring molecules 3-fold increase, read-out: AK-based Prestwick Library Screening Results: E. coli (increase in extracellular AK activity)), 1.3. For the same compound, the fold induction at 50 µM in assay [2] (planktonic S. aureus, 50 μM final drug concentration, 384-well, cutoff for positive-scoring molecules 3-fold increase, read-out: AK-based Prestwick Library Screening Results: S. aureus (increase in extracellular AK activity)) came to 1.1.

For the compound `CN(C)C(=N)N=C(N)N` [Metformin hydrochloride], the fold induction at 50 µM stood at 0.3 in the assay on E. cloacae (setting [10]); 0.4 in assay [1] (setting [11]); 0.8 in the assay with E. faecium (setting [12]); 0.4 in the assay on K. pneumoniae (setting [13]); 0.3 with P. aeruginosa (setting [14]); 0.5 with E. coli (setting [15]). In addition, the fold induction at 50 µM in assay [2] (setting [16]) was 0.4.
